Experimental data from patent publication EP1724268A1, “COMPOUND HAVING TGF-BETA INHIBITORY ACTIVITY AND PHARMACEUTICAL COMPOSITION CONTAINING SAME” (KIRIN BEER KABUSHIKI KAISHA, priority 2004, dated 2005).
Like-named read-outs stand apart in the source and are kept apart here.

Tested on: TGFβ signal
Assay: TGFβ signal inhibitory activity, (SBE)4-Luc reporter in A549 cells (Test Examples 1A and 1B)
Type: cell-based, human
Details: Homo sapiens, A549, read-out: TGFβ inhibition rate, %; for inhibition at 1 µM: test compound 1 µM
In short: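 Stable A549 line carrying (SBE)4-Luc Smad3-binding reporter treated with compound plus TGFβ-1 (2 ng/ml) for 4 hr; luciferase read by chemiluminescence. Percent inhibition relative to TGFβ-only and untreated cells, tested at 3 µM and 10 µM, some also at 1 µM.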

[1] = test compound 3 µM, Reference Examples, Table 1B
[2] = test compound 10 µM, Reference Examples, Table 1B
[3] = test compound 3 µM, TGFβ-1 2 ng/ml, 4 hr, Table 1A
[4] = test compound 10 µM, TGFβ-1 2 ng/ml, 4 hr, Table 1A
[5] = 3 µM, compounds of Reference Examples (Test Example 1B)
[6] = 10 µM, compounds of Reference Examples (Test Example 1B)

## CC=Cc1ccccc1Oc1ccnc2cc(OC)c(OC)cc12 [Compound r2]
[1]
  inhibition at 3 µM: 13%
[2]
  inhibition at 10 µM: 88%

## COc1cc2c(Oc3cc(C)c(C)nc3-c3ccccn3)ccnc2cc1C(N)=O [Compound 145, 4-(5,6-Dimethyl-[2,2']bipyridinyl-3-yloxy)-6-methgxy-quinoline-7-carboxylic acid amide]
[3]
  inhibition at 3 µM: 78%
[4]
  inhibition at 10 µM: 100%

## COc1cc2nccc(Oc3ccc(OCc4ccccc4)cc3C(C)=O)c2cc1OC [Compound r175, 1-[5-Benzyloxy-2-(6,7-dimethoxy-quinotin-4-yloxy)-phenyl]-ethanone]
[5]
  inhibition at 3 µM: 13%
[6]
  inhibition at 10 µM: 60%

## COc1cc2nccc(Oc3ccc4c(c3)C(=O)c3ccccc3-4)c2cc1OC [Compound r19]
[1]
  inhibition at 3 µM: 73%
[2]
  inhibition at 10 µM: 95%

## COc1cc2nccc(Oc3cc4cccnc4nc3-c3ccccc3)c2cc1OCc1ccccc1 [Compound 123, 3-(6-Benzyloxy-7-methoxy-quinolin-4-yloxy)-2-phenyl-[1,8]naphthyridine]
[3]
  inhibition at 3 µM: 99%
[4]
  inhibition at 10 µM: 100%

## CCC(=O)c1ccc(OCc2ccccc2)cc1Oc1ccnc2cc(OC)c(OC)cc12 [Compound r45]
[1]
  inhibition at 3 µM: 0%
[2]
  inhibition at 10 µM: 67%

## COc1cc2nccc(Oc3cc(C)c(C)nc3-c3ccccc3)c2cc1OC [r268]
[5]
  inhibition at 3 µM: 100%
[6]
  inhibition at 10 µM: 100%

## Cc1cc(Oc2ccnc3cc(-c4ccc(O)cc4)ccc23)c(-c2ccccn2)nc1C [Compound 107, 4-[4-(5,6-Dimethyl-[2,2']bipyridinyl-3-yloxy)-quinolin-7-yl]-phenol]
[3]
  inhibition at 3 µM: 100%
[4]
  inhibition at 10 µM: 100%

## COc1cc2nccc(Oc3cc4cccnc4nc3-c3ccc(Cl)cc3)c2cc1OC [Compound 84, 2-(4-Chloro-phenyl)-3-(6,7-dimethoxy-quinolin-4-yloxy)-[1,8]naphthyridine]
[3]
  inhibition at 3 µM: 69%
[4]
  inhibition at 10 µM: 100%

## COc1cc2c(Oc3ccc(C)cc3C(=O)c3ccccc3)ccnc2cc1OCCCN1CCC(CO)CC1 [r135]
[1]
  inhibition at 3 µM: 100%
[2]
  inhibition at 10 µM: 100%

## COc1cc2c(Oc3cc(C)c(C)nc3-c3ccc(C)cn3)ccnc2cc1OCCCO [Compound r460]
[5]
  inhibition at 3 µM: 97%

## COc1cc2nccc(Oc3ccc(C)nc3)c2cc1OC [Compound r115, 4-[(6-Methyl-3-pyridyl)oxy]-6,7-dimethoxyquinoline]
[1]
  inhibition at 3 µM: 74%
[2]
  inhibition at 10 µM: 97%

## CCc1ccc(Oc2ccnc3cc(OC)c(OC)cc23)c(-c2ccccn2)n1 [Compound 37, 3-(6,7-Dimethoxy-quinolin-4-yloxy)-6-ethyl-[2,2']bipyridine]
TGFβ-1 2 ng/ml, 4 hr, Table 1A
  inhibition at 1 µM: 98%
[3]
  inhibition at 3 µM: 100%

## COc1cc2c(Oc3cc4ccccc4nc3C)ccnc2cc1OCCO [Compound r369]
[5]
  inhibition at 3 µM: 99%
[6]
  inhibition at 10 µM: 100%

## COc1cc2nccc(Oc3ccc(C)nc3-c3cccc(CO)c3)c2cc1OC [Compound r231]
[5]
  inhibition at 3 µM: 100%
[6]
  inhibition at 10 µM: 100%

## COc1cc2nccc(Nc3cnc4ccccc4c3)c2cc1OC [r418]
[5]
  inhibition at 3 µM: 46%
[6]
  inhibition at 10 µM: 73%

## Cc1cc(Oc2ccnc3ccc(OCc4ccccc4)cc23)c(-c2ccccn2)nc1C [Compound 136, 3-(6-Benzyloxy-quinolin-4-yloxy)-5,6-dimethyl-[2,2']bipyridine]
[3]
  inhibition at 3 µM: 93%
[4]
  inhibition at 10 µM: 100%

## COc1cc2c(Oc3ccc(C)cc3C(=O)c3ccccc3)ccnc2cc1OCCNCCO [r124]
[1]
  inhibition at 3 µM: 99%
[2]
  inhibition at 10 µM: 100%

## CCCOC(=O)c1cc(C(C)=O)ccc1Oc1ccnc2cc(OC)c(OC)cc12 [Compound r95]
[1]
  inhibition at 3 µM: 67%
[2]
  inhibition at 10 µM: 96%

## COc1cc2nccc(Oc3cc4ccncc4nc3C)c2cc1OC [Compound 97, 3-(6,7-Dimethoxy-quinolin-4-yloxy)-2-methyl-[1,7]naphthyridine]
[3]
  inhibition at 3 µM: 52%
[4]
  inhibition at 10 µM: 88%

## CCOC(=O)c1ccc(Cl)cc1Oc1ccnc2cc(OC)c(OC)cc12 [Compound r81]
[1]
  inhibition at 3 µM: 91%
[2]
  inhibition at 10 µM: 100%

## COc1cc2nccc(Oc3cc(C)c(C)nc3-c3ccccn3)c2cc1F [Compound 110, 3-(6-Fluoro-7-methoxy-quinolin-4-yloxy)-5,6-dimethyl-[2,2']bipyridine]
[3]
  inhibition at 3 µM: 100%
[4]
  inhibition at 10 µM: 100%

## Cc1cc(Oc2ccnc3cc(-c4ccccc4)ccc23)c(-c2ccccn2)nc1C [Compound 17, 5,6-Dimethyl-3-(7-phenyl-quinolin-4-yloxy)-[2,2']bipyridine]
[3]
  inhibition at 3 µM: 98%
[4]
  inhibition at 10 µM: 100%

## COc1cc2nccc(Oc3cc4cccnc4nc3-c3ccccc3)c2cc1OC [Compound r422]
[5]
  inhibition at 3 µM: 100%
[6]
  inhibition at 10 µM: 100%

## CCC(=O)c1cc(C)ccc1Oc1ccnc2cc(OC)c(OC)cc12 [Compound r48]
[1]
  inhibition at 3 µM: 98%
[2]
  inhibition at 10 µM: 100%

## c1ccc(-c2nc3ncccc3cc2Oc2ccnc3cccnc23)cc1 [Compound 73, 4-(2-Phenyl-[1,8]naphthyridin-3-yloxy)-[1,5]naphthyridine]
[3]
  inhibition at 3 µM: 26%
[4]
  inhibition at 10 µM: 80%

## COc1cc2c(Oc3cc(C)c(C)nc3-c3ccccc3)ccnc2cc1OCC(CO)CO [Compound r336]
[5]
  inhibition at 3 µM: 100%

## COc1cc2nccc(Oc3cc4ccccc4nc3C)c2cc1OCCn1ccnc1 [Compound r416, 6-(2-Imidazol-1-yl-ethoxy)-7-methoxy-4-(2-methyl-quinolin-3-yloxy)-quinoline]
[5]
  inhibition at 3 µM: 92%
[6]
  inhibition at 10 µM: 100%

## COc1cc2nccc(Oc3ccc(C)nc3-c3cccc(C)c3)c2cc1OC [Compound r229]
[5]
  inhibition at 3 µM: 99%
[6]
  inhibition at 10 µM: 100%

## COc1cc2c(Oc3cc(C)c(C)nc3-c3cccnc3)ccnc2cc1OCC1CO1 (stereo not drawn) [Compound r348]
[5]
  inhibition at 3 µM: 76%

## COC(=O)c1cc2c(Oc3cc4cccnc4nc3-c3ccccc3)ccnc2cc1OC [Compound 63, Methyl 7-methoxy-4-(2-phenyl-[1,8]naphthyridin-3-yloxy)-quinoline-6-carboxylate]
[3]
  inhibition at 3 µM: 99%
[4]
  inhibition at 10 µM: 100%

## COc1cc2nccc(Oc3ccc(C)nc3C(O)c3ccccc3)c2cc1OC (stereo not drawn) [r217]
[5]
  inhibition at 3 µM: 91%
[6]
  inhibition at 10 µM: 100%

## CCc1ccc(Oc2ccnc3ccc(OCc4ccccc4)cc23)c(-c2ncccn2)n1 [Compound 190, 6-Benzyloxy-4-(6-ethyl-2-pyrimidin-2-yl-pyridin-3-yloxy)-quinoline]
[3]
  inhibition at 3 µM: 100%
[4]
  inhibition at 10 µM: 100%

## COc1cc2nccc(Oc3ccc(C)cc3Br)c2cc1OC [Compound r4]
[1]
  inhibition at 3 µM: 20%
[2]
  inhibition at 10 µM: 78%

## CCCOC(=O)c1cc2ccccc2cc1Oc1ccnc2cc(OCCCn3ccnc3)c(OC)cc12 [Compound r327]
[5]
  inhibition at 3 µM: 89%
[6]
  inhibition at 10 µM: 100%

## Cc1cc(Oc2ccnc3cc(Br)ccc23)c(-c2ccccn2)nc1C [Compound 14, 3-(7-Bromo-quinolin-4-yloxy)-5,6-dimethyl-[2,2']bipyridine]
[3]
  inhibition at 3 µM: 100%
[4]
  inhibition at 10 µM: 100%

## COc1ccc2ncnc(Oc3cc4cccnc4nc3-c3ccccc3)c2c1 [Compound 70, 6-Methoxy-4-(2-phenyl-[1,8]naphthyridin-3-yloxy)-quinazoline]
[3]
  inhibition at 3 µM: 61%
[4]
  inhibition at 10 µM: 95%

## COc1cc2nccc(Oc3ccc(C)nc3C(C)=O)c2cc1OC [Compound r117, 1-{[3-(6,7-Dimethoxy-4-quinolyl)oxy]-6-methyl-2-pyridyl}-1-ethanone]
[1]
  inhibition at 3 µM: 84%
[2]
  inhibition at 10 µM: 98%

## COc1cc2nccc(Oc3ccc(C)nc3C#C[Si](C)(C)C)c2cc1OC [r212]
[5]
  inhibition at 3 µM: 94%
[6]
  inhibition at 10 µM: 100%

## Brc1ccc(-c2nc3ncccc3cc2Oc2ccnc3ccccc23)cc1 [Compound 82, 2-(4-Bromo-phenyl)-3-(quinolin-4-yloxy)-[1,8]naphthyridine]
[3]
  inhibition at 3 µM: 25%
[4]
  inhibition at 10 µM: 67%

## COc1cc(Oc2ccnc3cc(OC)c(OC)cc23)c(C(C)=O)cc1OC [Compound r39]
[1]
  inhibition at 3 µM: 0%
[2]
  inhibition at 10 µM: 91%

## Brc1ccc2ncnc(Oc3cc4cccnc4nc3-c3ccccc3)c2c1 [Compound 69, 6-Bromo-4-(2-phenyl-[1,8]naphthyridin-3-yloxy)-quinazoline]
[3]
  inhibition at 3 µM: 52%
[4]
  inhibition at 10 µM: 94%

## Cc1cc(Oc2ccnc3ccsc23)c(-c2ccccn2)nc1C [Compound 28, 5,6-Dimethyl-3-(thieno[3,2-b]pyridin-7-yloxy)-[2,2']bipyridine]
TGFβ-1 2 ng/ml, 4 hr, Table 1A
  inhibition at 1 µM: 96%
[3]
  inhibition at 3 µM: 100%

## Cc1cc(Oc2ccnc3ccc(-c4cn[nH]c4)cc23)c(-c2ccccn2)nc1C [Compound 169, 5,6-Dimethyl-3-[6-(1H-pyrazol-4-yl)-quinolin-4-yloxy]-[2,2']bipyridine]
[3]
  inhibition at 3 µM: 100%
[4]
  inhibition at 10 µM: 100%

## COc1cc2c(Oc3ccc(C)cc3C(=O)c3ccccc3)ccnc2cc1OCCn1ccnc1 [Compound r131]
[1]
  inhibition at 3 µM: 96%
[2]
  inhibition at 10 µM: 100%

## COc1cc2nccc(Oc3cc4cc(F)ccc4nc3-c3ccccc3)c2cc1OC [r292]
[5]
  inhibition at 3 µM: 86%
[6]
  inhibition at 10 µM: 100%

## COc1cc2nccc(Oc3cc(C)nc4ccc(F)cc34)c2cc1OC [Compound r308]
[5]
  inhibition at 3 µM: 21%
[6]
  inhibition at 10 µM: 56%

## CCOC(=O)c1cc(C)ccc1Oc1ccnc2cc(OC)c(OC)cc12 [Compound r87]
[1]
  inhibition at 3 µM: 84%
[2]
  inhibition at 10 µM: 99%
